Measured values published in patent publication US10308615B2, “Heterocyclic compounds as inhibitors of Vanin-1 enzyme” (Pfizer Inc., priority 2015, dated 2019).

Key:
Assay type in all cases: biochemical
[1] = target: T1, human vanin-1 (Homo sapiens (Human), UniProt O95497); test: Human Vanin-1 Enzyme Assay 1; conditions: 25 pM human vanin-1, 50 uM pantetheine 7-amino-4-trifluoromethylcoumarin, 30 min preincubation, 60 min
Procedure, shortened: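 Purified His6/FLAG-tagged extracellular domain of human vanin-1, secreted from CHO cells, at 25 pM final in 50 mM Tris-HCl pH 8.0, 50 mM KCl, 0.005% Brij-35, 1.6 mM cysteamine, 0.5% DMSO. Inhibitor preincubated 30 min at room temperature; 50 uM pantetheine-AFC substrate, 60 min, fluorescence at 405/510 nm; 11-point four-fold dilution series.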

[2] = target: T1, human vanin-1; test: Human Vanin-1 Enzyme Assay 2; conditions: 1 nM human vanin-1, 10 uM substrate, 45 min
Protocol: Human Vanin-1 Enzyme Assay 2.
The in vitro assay measures enzymatic cleavage of the fluorescently-labeled vanin substrate, pantetheine 7-amino-4-trifluoromethylcoumarin, by human vanin-1.
The vanin-1 protein was prepared in-house from a construct expressing the extracellular domain of human vanin-1 (GenBank ID NM_004666) preceded N-terminally by the honey bee melittin signal peptide, a GSG linker sequence, a His6X tag and a FLAG tag. The secreted, soluble enzyme was purified from the conditioned medium from a CHO cell line stably expressing the resulting protein. Enzyme purification was performed through sequential Ni NTA and size-exclusion chromatography steps.
On the day of the assay, dose response plates were prepared by diluting the inhibitors in DMSO at compound concentration 100-fold the final in-assay concentration. Concentration series were prepared by serially diluting in DMSO in a half-log series for a total of 11 data points. Intermediate compound plates containing compound in 10% DMSO were then created by diluting the compounds 10-fold in assay buffer consisting of 50 mM Tris-HCl pH=8.0, 50 mM KCl, 0.005% Brij-35 and 1.5 mM cysteamine. To begin the assay 3 μL were transferred from the intermediate compound plate to the assay plate.
A working solution of human vanin-1 was prepared by diluting the enzyme stock to 1.25 nM in assay buffer. Next, 24 μL of the vanin-1 working solution were transferred to the assay plate. The enzyme reaction was then initiated by the addition of 3 μL of 100 μM pantetheine 7-amino-4-trifluoromethylcoumarin prepared in assay buffer. The final concentrations in the assay were 1 nM human vanin-1 and 10 uM substrate. The final concentration of DMSO was 1%. The assay plates were incubated for 45 minutes and before they were read on a Spectramax M5 using a 405 nm excitation wavelength and a 505 nm emission wavelength for detection.

[3] = target: T1, human vanin-1; test: Human Vanin-1 Enzyme Assay 3; conditions: 2 nM human vanin-1, 10 uM substrate, 15 min
Procedure, shortened: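 His/FLAG-tagged extracellular domain of human vanin-1 from CHO cells, used at 2 nM final, with 10 uM pantetheine-AFC substrate. Buffer: 50 mM Tris-HCl pH 8.0, 50 mM KCl, 0.005% Brij-35, 1.5 mM cysteamine, 1% DMSO. 15 min at room temperature; fluorescence read at 405/505 nm across an 11-point 2-fold dilution series.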

T1 sequence (O95497 22-491): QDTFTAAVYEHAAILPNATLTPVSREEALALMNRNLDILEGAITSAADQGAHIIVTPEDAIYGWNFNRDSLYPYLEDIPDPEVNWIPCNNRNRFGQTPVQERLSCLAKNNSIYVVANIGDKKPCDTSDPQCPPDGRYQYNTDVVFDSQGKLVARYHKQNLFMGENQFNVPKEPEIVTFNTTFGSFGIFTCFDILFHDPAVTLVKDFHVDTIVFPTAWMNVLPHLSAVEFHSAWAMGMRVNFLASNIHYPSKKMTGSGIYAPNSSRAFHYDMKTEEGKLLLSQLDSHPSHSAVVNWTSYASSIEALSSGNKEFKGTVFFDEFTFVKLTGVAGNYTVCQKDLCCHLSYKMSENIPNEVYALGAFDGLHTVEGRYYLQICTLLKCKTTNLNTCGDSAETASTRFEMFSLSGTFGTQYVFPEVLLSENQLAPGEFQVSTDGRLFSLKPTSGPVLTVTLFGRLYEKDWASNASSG

Row | SMILES | IC50 [1] | IC50 [2] | IC50 [3]
1 | CC(C)(Nc1ncc(C(=O)c2cccc(C#N)c2)cn1)c1ccccc1 [Example 3, 3-({2-[(2-phenylpropan-2-yl)amino]pyrimidin-5-yl}carbonyl)benzonitrile] | 0.0136 µM | 0.0153 µM | 0.075 µM
2 | O=C(c1cnc(NCc2cnccn2)nc1)c1cccc(C(F)(F)F)c1 [Example 11, {2-[(pyrazin-2-ylmethyl)amino]pyrimidin-5-yl}[3-(trifluoromethyl)phenyl]methanone] | 0.0064 µM | 0.009 µM | < 0.0062 µM
3 | O=C(c1cnc(NCc2cccnc2)nc1)c1cccc(C(F)(F)F)c1 [Example 12, {2-[(pyridin-3-ylmethyl)amino]pyrimidin-5-yl}[3-(trifluoromethyl)phenyl]methanone] | 0.0019 µM | 0.0029 µM | 0.0005 µM
4 | Cc1cccc(C(=O)c2cnc(NCc3cccnc3)nc2)c1 [Example 14, (3-methylphenyl){2-[(pyridin-3-ylmethyl)amino]pyrimidin-5-yl}methanone] | 0.0478 µM | 0.0315 µM | < 0.013 µM
5 | O=C(c1cnc(NCc2cccnc2)nc1)c1ccccc1F [Example 15, (2-fluorophenyl){2-[(pyridin-3-ylmethyl)amino]pyrimidin-5-yl}methanone] | 0.329 µM | 0.0924 µM | 0.17 µM
6 | Cc1cccc(C(=O)c2cnc(NCc3ccc(C(N)=O)cc3)nc2)c1 [Example 23, 4-({[5-(3-methylbenzoyl)pyrimidin-2-yl]amino}methyl) benzamide] | 0.178 µM | 0.0987 µM | 0.16 µM
7 | O=C(c1cnc(NCc2ccccc2)nc1)c1cccc(Cl)c1 [Example 24, [2-(benzylamino)pyrimidin-5-yl](3-chlorophenyl) methanone] | 1.24 µM | 0.317 µM | 0.274 µM
8 | CC(C)(Nc1ncc(C(=O)c2cccc(Cl)c2)cn1)c1ccccc1 [Example 25, (3-chlorophenyl){2-[(2-phenylpropan-2-yl)amino]pyrimidin-5-yl}methanone] | 0.0741 µM | 0.0645 µM | 0.0115 µM
9 | N#Cc1cccc(C(=O)c2cnc(NCc3ccccc3)nc2)c1 [Example 27, 3-{[2-(benzylamino)pyrimidin-5-yl]carbonyl} benzonitrile] | 0.0797 µM | 0.0404 µM | 0.0522 µM
10 | N#Cc1cccc(C(=O)c2cnc(NCc3ccc(Cl)cc3)nc2)c1 [Example 28, 3-({2-[(4-chlorobenzyl)amino]pyrimidin-5-yl}carbonyl) benzonitrile] | 0.0382 µM | 0.0218 µM | 0.0084 µM
11 | COc1ccc(CNc2ncc(C(=O)c3cccc(C#N)c3)cn2)cc1 [Example 29, 3-({2-[(4-methoxybenzyl)amino]pyrimidin-5-yl}carbonyl) benzonitrile] | 0.122 µM | 0.0727 µM | 0.107 µM
12 | N#Cc1cccc(C(=O)c2cnc(NCc3ccc(F)cc3F)nc2)c1 [Example 30, 3-({2-[(2,4-difluorobenzyl)amino]pyrimidin-5-yl}carbonyl) benzonitrile] | 0.0364 µM | 0.0355 µM | 0.0168 µM
13 | N#Cc1cccc(C(=O)c2cnc(NCc3ccc(F)cc3)nc2)c1 [Example 31, 3-({2-[(4-fluorobenzyl)amino]pyrimidin-5-yl}carbonyl) benzonitrile] | 0.102 µM | 0.0572 µM | 0.014 µM
14 | N#Cc1cccc(C(=O)c2cnc(NCc3ccccc3Cl)nc2)c1 [Example 32, 3-({2-[(2-chlorobenzyl)amino]pyrimidin-5-yl}carbonyl) benzonitrile] | 0.0953 µM | 0.0713 µM | 0.0143 µM
15 | NC(=O)c1ccc(CNc2ncc(C(=O)c3cccc(C(F)(F)F)c3)cn2)cc1 [Example 33, 4-[({5-[3-(trifluoromethyl)benzoyl]pyrimidin-2-yl}amino)methyl] benzamide] | 0.0073 µM | 0.0559 µM | 0.206 µM
16 | O=C(c1ccccc1)c1cnc(NCc2cccnc2)nc1 [Example 34, phenyl{2-[(pyridin-3-ylmethyl)amino]pyrimidin-5-yl}methanone] | 0.0537 µM | 0.107 µM | 0.0693 µM
17 | Cc1cccc(C(=O)c2cnc(NCc3ccccn3)nc2)c1 [Example 38, (3-methylphenyl){2-[(pyridin-2-ylmethyl)amino]pyrimidin-5-yl}methanone] | 0.857 µM | 0.868 µM | 0.735 µM
18 | Cc1cccc(C(=O)c2cnc(NCc3ccccc3)nc2)c1 [Example 40, [2-(benzylamino)pyrimidin-5-yl](3-methylphenyl) methanone] | 1.74 µM | 0.17 µM | 0.543 µM
19 | Cc1ccc(CNc2ncc(C(=O)c3cccc(C(F)(F)F)c3)cn2)cn1 [Example 73, (2-{[(6-methylpyridin-3-yl)methyl]amino}pyrimidin-5-yl)[3-(trifluoromethyl)phenyl]methanone] | 0.0017 µM | 0.0106 µM | 0.0012 µM

Continued, values first:

Row | IC50 [1] | IC50 [2] | IC50 [3] | SMILES
20 | 0.794 µM | 0.188 µM | 0.144 µM | COc1cccc(C(=O)c2cnc(NCc3ccccc3)nc2)c1 [Example 45, [2-(benzylamino)pyrimidin-5-yl](3-methoxyphenyl) methanone]
21 | 0.218 µM | 0.357 µM | 0.398 µM | NC(=O)c1cccc(CNc2ncc(C(=O)c3cccc(Cl)c3)cn2)c1 [Example 48, 3-({[5-(3-chlorobenzoyl)pyrimidin-2-yl]amino}methyl) benzamide]
22 | 5.69 µM | > 7.62 µM | 0.112 µM | O=C(O)c1ccc(CNc2ncc(C(=O)c3ccc(F)c(F)c3)cn2)cc1 [Example 49, 4-({[5-(3,4-difluorobenzoyl)pyrimidin-2-yl]amino}methyl) benzoic acid]
23 | 2.28 µM | 0.624 µM | 0.192 µM | COc1ccc(C(=O)c2cnc(NCc3ccc(C(N)=O)cc3)nc2)cc1 [Example 59, 4-({[5-(4-methoxybenzoyl)pyrimidin-2-yl]amino}methyl) benzamide]
24 | 0.0188 µM | 0.0221 µM | 0.012 µM | N#Cc1cccc(C(=O)c2cnc(NC3(c4ccccc4)CC3)nc2)c1 [Example 65, 3-({2-[(1-phenylcyclopropyl)amino]pyrimidin-5-yl}carbonyl) benzonitrile]
25 | 0.0213 µM | 0.0448 µM | 0.0106 µM | O=C(c1cnc(NC2(c3ccccc3)CC2)nc1)c1cccc(C(F)(F)F)c1 [Example 66, {2-[(1-phenylcyclopropyl)amino]pyrimidin-5-yl}[3-(trifluoromethyl)phenyl]methanone]
26 | 0.107 µM | 0.0731 µM | 0.0788 µM | N#Cc1cccc(C(=O)c2cnc(NCc3ccc(C(N)=O)cc3)nc2)c1 [Example 68, 4-({[5-(3-cyanobenzoyl)pyrimidin-2-yl]amino}methyl) benzamide]
27 | 0.0671 µM | 0.0452 µM | 0.0259 µM | NC(=O)c1ccc(CNc2ncc(C(=O)c3ccc(F)c(C(F)(F)F)c3)cn2)cc1 [Example 87, 4-[({5-[4-fluoro-3-(trifluoromethyl)benzoyl]pyrimidin-2-yl}amino)methyl] benzamide]
28 |  | 0.563 µM | 0.381 µM | Cn1cc(C(=O)c2cnc(NCc3cccnc3)nc2)cn1 [Example 103, (1-methyl-1H-pyrazol-4-yl){2-[(pyridin-3-ylmethyl)amino]pyrimidin-5-yl}methanone]
29 |  | 0.0113 µM | 0.0061 µM | O=C(c1cnc(NCc2cncnc2)nc1)c1cccc(C(F)(F)F)c1 [Example 119, {2-[(pyrimidin-5-ylmethyl)amino]pyrimidin-5-yl}[3-(trifluoromethyl)phenyl]methanone]
30 |  | 0.0219 µM | > 1.25 µM | CS(=O)(=O)c1cccc(C(=O)c2cnc(NCc3ccc(C(N)=O)cc3)nc2)c1 [Example 125, 4-[({5-[3-(methylsulfonyl)benzoyl]pyrimidin-2-yl}amino)methyl] benzamide]
31 |  | 6.41 µM | 3.79 µM | COc1cccc(C(=O)c2cnc(NCc3ccc(N4CCN(C)CC4)cc3)nc2)c1 [Example 154, (3-methoxyphenyl) (2-{[4-(4-methylpiperazin-1-yl)benzyl]amino}pyrimidin-5-yl)methanone]
